{
  "source": "patent US20240424048A1",
  "about": "“CHINESE MEDICINE FORMULA FOR TREATING TUMORS AND/OR PULMONARY NODULES AND PREPARATION METHOD THEREOF” (priority 2023, published 2024)",
  "key": {"Lewis lung cancer": {"tested_on": "Lewis lung cancer", "assay_type": "in vivo, mouse", "conditions": "15 mg/kg", "from_the_text": "C57BL/6 mice, 6-8 weeks old, weighing 19-21 g, male, provided by Liaoning Changsheng Biotechnology Co., Ltd., certificate number: SYSK (Ji) 2018-0001. Two batches of experiments all used male C57BL/6 mice, which were adaptively raised in a laboratory for 3-5 days before the experiment.\nMouse Lewis lung cancer cells were provided by Jilin Cancer Research Institute and passaged and preserved in the laboratory. Lewis lung cancer cells were resuscitated, cells were expanded to 2-3×10^8 cells/mL, cells were collected, and cell density was adjusted to 2×10^7 cells/mL.\n(§1) a first batch of experiments: C57BL/6 mice were randomly divided into 6 groups according to body weight. • Saline control group administered with physiological saline 20 ml/kg • Solvent control group administered with 35-degree white wine 20 ml/kg • Cyclophosphamide administered with 0.075% 15 mg/20 group cyclophosphamide ml/kg • Low dose group of anti-administered with 20% anti-lung cancer 4 ml/20 lung cancer vinum ml/kg • Mid dose group of anti-administered with 40% anti-lung cancer 8 ml/20 lung cancer vinum ml/kg • High dose group of anti-Administered with 80% anti-lung 16 ml/20 m lung cancer vinum cancer vinum l/kg • a second batch of experiments: randomly divided into 6 groups based on body weight: • Saline control group administered with physiological saline 20 ml/kg • Solvent control group administered with 35-degree white wine 20 ml/kg • Cyclophosphamide administered with 0.075% 15 mg/20 group cyclophosphamide ml/kg • Low dose group of anti-administered with 10% anti-lung cancer 2 ml/20 lung cancer vinum ml/kg • Mid dose group of anti-administered with 20% anti-lung cancer 4 ml/20 lung cancer vinum ml/kg • High dose group of anti-administered with 40% anti-lung cancer 8 ml/20 lung cancer vinum ml/kg\n(§2) C57BL/6 mice were adaptively fed for 3-5 days, and an in vivo transplant tumor model was prepared using anti-tumor drug experimental methods. Each mouse was subcutaneously injected with 0.2 ml of cell suspension with a concentration of 2×10^7 cells/mL. On the second day, they were randomly divided into 6 groups based on body weight, with 20 mice in each group. Each group started administration the next day after tumor inoculation, and the drugs in each group were freshly prepared and administered at a dose of […], twice a day for 14, 16, or 21 consecutive days.\n(§3) The first batch of experiments: measure a tumor volume and plot a tumor growth curve once on the 8th, 10th, 12th, and 14th day of administration; after 14 days of administration, 10 mice in each group were weighed and euthanized. Tumors, spleens, lungs, and thymus were removed, weighed, tumor inhibition rate and organ coefficient were calculated; after 21 days of administration, 6 mice in each group were perfused with physiological saline and their lungs were removed, fixed with Bouin solution and the number of metastatic lung nodules was examined under a microscope.\n(§4) The second batch of experiments: measure the tumor volume and plot the tumor growth curve once on the 8th, 10th, 12th, 14th, and 16th day of administration; after 16 days of administration, 12 mice in each group were weighed and euthanized. Tumors, spleens, lungs, and thymus were removed, weighed, and the tumor inhibition rate and organ coefficient were calculated; after 21 days of administration, 6 mice in each group were perfused with physiological saline and their lungs were removed, fixed with Bouis solution and the number of metastatic lung nodules was examined under the microscope."}, "[1]": {"tested_on": "Lewis lung cancer lung metastasis", "assay_type": "in vivo, mouse", "conditions": "15 mg/kg; for Number of pulmonary nodules: after 21 days of administration", "description": "as §1\nC57BL/6 mice were adaptively fed for 3-5 days, and an in vivo transplant tumor model was prepared using anti-tumor drug experimental methods. Each mouse was subcutaneously injected with 0.2 ml of cell suspension with a concentration of 2×10^7 cells/mL. […]\nas §3, with “microscope. […]” for “microscope.”"}, "[2]": {"conditions": "15 mg/kg", "description": "as §1, §2, §3, §4"}, "[3]": {"conditions": "first batch, after 14 days of administration"}, "[4]": {"conditions": "second batch, after 16 days of administration"}},
  "note": "Read-outs that look alike come from different tables or passages of the source. Marks after values point to notes of the source that are not given here.",
  "data": [
    {"smiles": "O=P1(N(CCCl)CCCl)NCCCO1", "note": "(centres unmarked) [Cyclophosphamide]", "values": [
      {"measurement": "Volume of tumor", "setting": "Lewis lung cancer; first batch, 8 days", "result": "61.08##** mm^3"},
      {"measurement": "Volume of tumor", "setting": "Lewis lung cancer; first batch, 10 days", "result": "244.09##** mm^3"},
      {"measurement": "Volume of tumor", "setting": "Lewis lung cancer; first batch, 12 days", "result": "817.83##** mm^3"},
      {"measurement": "Volume of tumor", "setting": "Lewis lung cancer; first batch, 14 days", "result": "953.67##** mm^3"},
      {"measurement": "Tumor inhibition rate", "setting": "Lewis lung cancer; [3]", "result": 63.52, "unit": "%"},
      {"measurement": "Weight of tumor", "setting": "Lewis lung cancer; [3]", "result": "0.59 ± 0.26", "unit": "g"},
      {"measurement": "Volume of tumor", "setting": "Lewis lung cancer; second batch, 8 days", "result": "111.30##** mm^3"},
      {"measurement": "Volume of tumor", "setting": "Lewis lung cancer; second batch, 10 days", "result": "165.52##** mm^3"},
      {"measurement": "Volume of tumor", "setting": "Lewis lung cancer; second batch, 12 days", "result": "278.25##** mm^3"},
      {"measurement": "Volume of tumor", "setting": "Lewis lung cancer; second batch, 14 days", "result": "371.57##** mm^3"},
      {"measurement": "Volume of tumor", "setting": "Lewis lung cancer; second batch, 16 days", "result": "461.54##** mm^3"},
      {"measurement": "Tumor inhibition rate", "setting": "Lewis lung cancer; [4]", "result": 67.43, "unit": "%"},
      {"measurement": "Weight of tumor", "setting": "Lewis lung cancer; [4]", "result": "0.56 ± 0.22", "unit": "g"},
      {"measurement": "Tumor inhibition rate", "setting": "Lewis lung cancer; summary of both batches, by gavage", "result": 65.48, "unit": "%"},
      {"measurement": "Effect on lung metastasis in Lewis lung cancer mice", "setting": "[1]; continuous administration for 21 days", "result": "can inhibit lung metastasis"},
      {"measurement": "Number of pulmonary nodules", "setting": "[1]; first batch", "result": "6.17 ± 1.94"},
      {"measurement": "Number of pulmonary nodules", "setting": "[1]; second batch", "result": "6.67 ± 1.21"},
      {"measurement": "Toxicity (body weight, thymic coefficient, spleen coefficient of mice)", "setting": "[2]", "result": "significant toxic effects"},
      {"measurement": "Weight before administration", "setting": "[2]; first batch, Table 3", "result": "20.30 ± 1.33", "unit": "g"},
      {"measurement": "Lung coefficient", "setting": "[2]; [3]", "result": "7.26 ± 0.85"},
      {"measurement": "Spleen coefficient", "setting": "[2]; [3]", "result": "3.40 ± 1.02"},
      {"measurement": "Thymic coefficient", "setting": "[2]; [3]", "result": "1.11 ± 0.35"},
      {"measurement": "Weight after administration", "setting": "[2]; [3]", "result": "20.30 ± 1.33", "unit": "g"},
      {"measurement": "Weight after administration", "setting": "[2]; first batch, after 21 days of administration", "result": "21.81 ± 1.37", "unit": "g"},
      {"measurement": "Weight after administration", "setting": "[2]; [4]", "result": "21.58 ± 0.79", "unit": "g"},
      {"measurement": "Lung coefficient", "setting": "[2]; [4]", "result": "6.66 ± 0.72"},
      {"measurement": "Spleen coefficient", "setting": "[2]; [4]", "result": "3.62 ± 0.86"},
      {"measurement": "Thymic coefficient", "setting": "[2]; [4]", "result": "0.47 ± 0.16"},
      {"measurement": "Weight after administration", "setting": "[2]; second batch, after 21 days of administration", "result": "22.02 ± 1.71", "unit": "g"}
    ]}
  ]
}
